Test results as given in ChEMBL document CHEMBL1152324, “Protolimonoids from Melia toosendan” (J Nat Prod, 2009).

Legend:
Format in all cases: functional, cell-based
HL-60 = test: Cytotoxicity against human HL60 cells by SRB assay
HT-29 = test: Cytotoxicity against human HT-29 cells by SRB assay
MCF7 = test: Cytotoxicity against human MCF7 cells by SRB assay

COc1cccc2c1C(=O)c1c(O)c3c(c(O)c1C2=O)C[C@@](O)(C(=O)CO)C[C@@H]3O[C@H]1C[C@H](N)[C@H](O)[C@H](C)O1 [DOXORUBICIN]
IC50 (HL-60): 0.016 µM | IC50 (HT-29): 0.33 µM | IC50 (MCF7): 0.12 µM

CC(C)=CCCC(C(=O)O)[C@@H]1[C@@H](O)C[C@]2(C)C3=CC[C@H]4C(C)(C)[C@@H](O)CC[C@]4(C)[C@H]3CC[C@@]12C (some centres not stated) [TOOSENDANIC ACID A]
IC50 (HL-60): < 10 µM | IC50 (HT-29): < 10 µM | IC50 (MCF7): < 10 µM

CC(C)=CCCC(C(=O)O)[C@@H]1[C@@H](O)C[C@]2(C)C3=CC[C@H]4C(C)(C)[C@H](O)CC[C@]4(C)[C@H]3CC[C@@]12C (some centres not stated) [TOOSENDANIC ACID B]
IC50 (HL-60): < 10 µM | IC50 (HT-29): < 10 µM | IC50 (MCF7): < 10 µM

CC(C)(O)[C@@H]1CC[C@H]([C@@H]2[C@@H](O)C[C@]3(C)C4=CC[C@H]5C(C)(C)C(=O)CC[C@]5(C)[C@H]4CC[C@@]23C)[C@H]1O [TOOSENDANONE A]
IC50 (HL-60): < 10 µM | IC50 (HT-29): < 10 µM | IC50 (MCF7): < 10 µM
